Assay results as given in patent publication US20260364184A1, “COMPOUND BASED ON OXOISOINDOLINYL-SUBSTITUTED TETRAHYDROPYRIMIDINE-DIONE AND USE THEREOF” (GLUETACS THERAPEUTICS (SHANGHAI) CO., LTD., priority 2023, published 2026).
Like-named read-outs stand apart in the source and are kept apart here.

How the values were obtained:
[1] = tested on: Human acute lymphocytic leukemia T lymphocytes cell line (CCRF-CEM); assay: Inhibition of CCRF-CEM cell proliferation (CellTiter luminescent viability); format: cell-based; details: Homo sapiens, 96 h, Table IF2, AR inhibitor-based; for inhibition at 0.01 µM: 10 nM, read-out: Inhibition Rate at 10 nM (%); for inhibition at 0.5 µM: 500 nM, read-out: Inhibition Rate at 500 nM (%)
Protocol: (§1) The tumor cells used herein were cultured in a cell culture medium listed in table 3 at 37 °C in an incubator with 5% CO2. Prior to experimentation, all cell lines used were correctly identified by STR profiling, and tested negative for mycoplasma contamination using a mycoplasma detection kit through routine screenings.
(§2) The IC50 values of the compounds of the present disclosure (including the compounds in Table 1, Table 2, and Examples 1-468) were determined using the CellTiter-Meiluncell Luminescent Cell Viability Assay Kit from Dalian Meilun Biotech Co., Ltd. The detailed procedure is as follows: Tumor cells were seeded in 96-well cell culture plates at the densities specified in Table 4. On the following day, the test compounds of the present disclosure were subjected to serial dilution. The dilution can be performed according to one of the following two methods: • (1) The first dilution method: The test compounds of the present disclosure (including the compounds in Table 1, Table 2, and Examples 1-468) were subjected to 5-fold serial dilutions starting from a highest concentration of 2000 μM, resulting in a total of 9 concentrations from high to low (2000, 400, 80, 16, 3.2, 0.64, 0.128, 0.0256, 0.00512 μM). Subsequently, 0.5 μL of the test compound dilution was transferred into the 96-well plate containing the cells, with each well containing 100 μL of cell culture medium. […] Into the 96-well plate, the diluted test compounds and corresponding detection reagents were added, resulting in final test compound concentrations of 500 nM and 10 nM, respectively. The experimental procedure is described below using the diluted 2 μM test compound as an example.
(§3) 0.5 μL of the aforementioned diluted compound of the present disclosure (including the compounds in Table 1, Table 2, and Examples 1-468) was added to the seeded cells in 100 μL of medium, yielding a final test compound concentration of 10 nM. After the cells were treated with the compounds of the present disclosure for a specified period, the cell viability assay reagent was added to the culture medium according to the kit's instructions to determine cell viability. […] All controls were treated using the same procedure as the compounds of the present disclosure. The growth inhibition curves for the compounds of the present disclosure were plotted using Prism GraphPad software, and the IC50 values were calculated therefrom.

[2] = tested on: Human diffuse large B-cell lymphoma cell line (TMD8); assay: Inhibition of TMD8 cell proliferation (CellTiter luminescent viability); format: cell-based; details: Homo sapiens, TMD8, 96 h, Table IF1, AR inhibitor-based; for inhibition at 0.01 µM: TMD8, 10 nM, read-out: Inhibition Rate at 10 nM (%); for inhibition at 0.5 µM: TMD8, 500 nM, read-out: Inhibition Rate at 500 nM (%)
Protocol: as §1, §2, §3

[3] = tested on: Human T lymphocytic leukemia cell line (Jurkat); assay: Inhibition of Jurkat cell proliferation (CellTiter luminescent viability); format: cell-based; details: Homo sapiens, Table IF3, AR inhibitor-based, 96 hours; for inhibition at 0.01 µM: 10 nM, read-out: Inhibition Rate at 10 nM (%); for inhibition at 0.5 µM: 500 nM, read-out: Inhibition Rate at 500 nM (%)
Protocol: as §1, §2, §3

[4] = Inhibition of RPMI-8226 cell proliferation (CellTiter luminescent viability); format: cell-based; details: Homo sapiens, read-out: Inhibition Rate at 10 nM (%)
Protocol: as §1, §2, §3

[5] = tested on: Human B-Cell Lymphoma Cells (RPMI-8226); assay: as above; format: cell-based; details: RPMI-8226, 500 nM, read-out: Inhibition Rate at 500 nM (%)
Protocol: as §1, §2, §3

[6] = tested on: Human large cell immunoblastic lymphoma cell line SR; assay: Inhibition of SR cell proliferation (CellTiter luminescent viability); format: cell-based; details: Table IB1, ALK inhibitor-based, 96 hours, read-out: Inhibitory activity (IC50, nM) on tumor cell proliferation, SR
Protocol: as §1, §2, §3

[7] = molecular target: T1, human Cereblon WT GST-tagged protein (CRBN) (Homo sapiens, UniProt Q96SW2); assay: CRBN binding by HTRF (Cereblon binding kit)
T1 construct: purchased CISBIO 64BDCRBNPEH
Protocol: The CEREBLON BINDING kits (specification: 10,000 tests; product number: Catalog #64BDCRBNPEH; CISBIO company) was used to determine the CRBN binding ability of the compounds to be tested through a HTRF method (homogeneous time-resolved fluorescence). The specific methods are as follows: • 1. According to the instructions of the CEREBLON BINDING KITS, serial dilutions were performed for the test compounds of the present disclosure (including the compounds in Table 1, Table 2, and Examples 1-468) and for lenalidomide. Specifically, diluent #9 (1×) solution was used as the diluent, and multiple concentration gradients were set. The dilution operation can be performed according to one of the following two methods: • (1) The first dilution method: The test compounds of the present disclosure (including the compounds in Table 1, Table 2, and Examples 1-468) were subjected to 5-fold serial dilutions starting from a highest concentration of 40 μM, resulting in a total of 7 concentrations from high to low (40, 8, 1.6, 0.32, 0.064, 0.0128, 0.00256 μM). Subsequently, the diluted test compounds and corresponding detection reagents were added to each well of a 96-well plate, resulting in final test compound concentrations of 10, 2, 0.4, 0.08, 0.016, 0.0032, and 0.00064 μM, respectively. • (2) As an alternative, a second dilution method can be used: The test compounds of the present disclosure (including the compounds in Table 1, Table 2, and Examples 1-468) were subjected to 4-fold gradient dilutions starting from a highest concentration of 8 μM, resulting in 2 concentrations (8 μM, 2 μM). Into the 96-well plate, the diluted test compounds and corresponding detection reagents were added, resulting in final test compound concentrations of 2 μM and 0.5 μM, respectively. The experimental procedure is described below using the diluted 8 μM test compound and lenalidomide solutions as examples. • 2. 2.5 μL of the above 8 μM of the tested compounds and lenalidomide solution, as well as the same volume of diluent #9 (1×) solution (solvent control group, Std0) were added to each well of a 96-well plate, respectively. Then, 2.5 μL of human Cereblon WT GST-tagged protein solution was added to each well. Finally, 5 μL of the thoroughly mixed Thalidomide-Re reagent and GST Eu antibody working solution were added to each of the aforementioned wells. The final concentration of the tested compounds and lenalidomide in each well was 2 μM. • 3. The blank control wells were sequentially added with 2.5 μL of diluent #9 (1×) solution, 2.5 μL of PROTAC binding buffer, and 5 μL of thoroughly mixed Thalidomide-Re reagent and GST Eu antibody working solution. • 4. After sealing and incubating the solutions in the aforementioned wells at room temperature for 3 hours, the absorbance values at emission wavelengths of 620 nm and 665 nm were detected by the HTRF method using a Spark microplate reader (V3.1 SP1).
The corresponding CRBN binding inhibition rate was calculated using the following method:
Rcompound=OD 665 nmcompound/OD 620 nmcompound−OD 665 nmcontrol/OD 620 nmcontrol
RStd0=OD 665 nmStd0/OD 620 nmStd0−OD 665 nmcontrol/OD 620 nmcontrol inhibition rate (%)=(1−Rcompound/RStd0)*100
Note: OD 665 nmcompound is the absorbance value of each well of the compounds to be tested of the present disclosure at an emission wavelength of 665 nm. OD 620 nmcompound is the absorbance value of each well of the compounds to be tested of the present disclosure at an emission wavelength of 620 nm. OD 665 nmcontrol is the absorbance value of the blank control well at an emission wavelength of 665 nm. OD 620 nmcontrol is the absorbance value of the blank control well at an emission wavelength of 620 nm. OD 665 nmStd0 is the absorbance value of the solvent control well at an emission wavelength of 665 nm. OD 620 nmStd0 is the absorbance value of the solvent control well at an emission wavelength of 620 nm.

T1 sequence (Q96SW2 whole entry): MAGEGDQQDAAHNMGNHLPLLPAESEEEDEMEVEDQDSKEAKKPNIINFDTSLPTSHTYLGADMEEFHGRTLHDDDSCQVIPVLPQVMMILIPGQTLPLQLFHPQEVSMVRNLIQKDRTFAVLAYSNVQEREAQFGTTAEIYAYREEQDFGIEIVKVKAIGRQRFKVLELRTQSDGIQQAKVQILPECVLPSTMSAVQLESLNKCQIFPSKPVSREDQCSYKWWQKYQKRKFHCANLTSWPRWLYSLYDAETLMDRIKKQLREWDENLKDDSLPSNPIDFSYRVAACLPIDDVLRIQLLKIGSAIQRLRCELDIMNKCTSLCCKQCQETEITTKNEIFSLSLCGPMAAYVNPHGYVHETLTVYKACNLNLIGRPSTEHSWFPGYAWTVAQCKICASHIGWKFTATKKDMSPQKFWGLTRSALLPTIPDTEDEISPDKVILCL

IC50 [6] [nM]	Inhibition Rate at 0.5 μM (%) ([7]; 0.5 μM)	Inhibition Rate at 2 μM (%) ([7]; 2 μM)	SMILES	inhibition at 0.01 µM [1] [%]	inhibition at 0.5 µM [1] [%]	inhibition at 0.01 µM [2] [%]	inhibition at 0.5 µM [2] [%]	inhibition at 0.01 µM [3] [%]	inhibition at 0.5 µM [3] [%]	inhibition at 0.01 µM ([4]; Table IA4, IRAK4 inhibitor-based, RPMI-8226, 10 nM, 96 hours) [%]	inhibition at 0.5 µM ([5]; Table IA4, IRAK4 inhibitor-based, 96 hours) [%]	inhibition at 0.01 µM ([4]; RPMI-8226, 10 nM) [%]	inhibition at 0.5 µM [5] [%]
			N#Cc1ccc(O[C@H]2CC[C@H](NC(=O)c3ccc(N4CCC(CN5CC6CC(C5)N6c5ccc6c(c5)C(=O)N(N5CCC(=O)NC5=O)C6=O)CC4)nn3)CC2)cc1Cl [GT-05231, N-((1r,4r)-4-(3-chloro-4-cyanophenoxy)cyclohexyl)-6-(4-((6-(2-(2,4-dioxotetrahydropyrimidin-1(2H)-yl)-1,3-dioxoisoindolin-5-yl)-3,6-diazabicyclo[3.1.1]heptan-3-yl)methyl)piperidin-1-yl)pyridazine-3-carboxamide]	5 to 10	30 to 40	5 to 10	40 to 60	10 to 15	30 to 40				
			N#Cc1ccc(O[C@H]2CC[C@H](NC(=O)c3ccc(N4CCC(CN5CCN(c6cccc7c6C(=O)N(N6CCC(=O)NC6=O)C7=O)CC5)CC4)nn3)CC2)cc1Cl [GT-05230, N-((1r,4r)-4-(3-chloro-4-cyanophenoxy)cyclohexyl)-6-(4-((4-(2-(2,4-dioxotetrahydropyrimidin-1(2H)-yl)-1,3-dioxoisoindolin-4-yl)piperazin-1-yl)methyl)piperidin-1-yl)pyridazine-3-carboxamide]	10 to 15	20 to 30	5 to 10	20 to 25	10 to 15	20 to 30				
			N#Cc1ccc(O[C@H]2CC[C@H](NC(=O)c3ccc(N4CCC(CN5CCN(C6CCN(c7ccc8c(c7)C(=O)N(N7CCC(=O)NC7=O)C8=O)CC6(F)F)CC5)CC4)nn3)CC2)cc1Cl (stereo partly shown) [GT-05235, N-((1r,4r)-4-(3-chloro-4-cyanophenoxy)cyclohexyl)-6-(4-((4-(1-(2-(2,4-dioxotetrahydropyrimidin-1(2H)-yl)-1,3-dioxoisoindolin-5-yl)-3,3-difluoropiperidin-4-yl)piperazin-1-yl)methyl)piperidin-1-yl)pyridazine-3-carboxamide]	10 to 15	30 to 40	5 to 10	35 to 40	5 to 10	30 to 40				
			CC(C)(O)c1cc2nn(C3CCN(Cc4ccc5c(c4)C(=O)N(N4CCC(=O)NC4=O)C5=O)CC3)cc2cc1NC(=O)c1cccc(C(F)(F)F)n1 [GT-05752, N-(2-(1-((2-(2,4-dioxotetrahydropyrimidin-1(2H)-yl)-1,3-dioxoisoindolin-5-yl)methyl)piperidin-4-yl)-6-(2-hydroxypropan-2-yl)-2H-indazol-5-yl)-6-(trifluoromethyl) picolinamide]							15 to 20	25 to 30		
			N#CC1(CNc2nc(-c3cc(NC4CCN(CC5CCN(c6cccc7c6C(=O)N(N6CCC(=O)NC6=O)C7=O)CC5)CC4)ncc3Cl)cs2)CCOCC1 [GT-08345, 4-(((4-(5-chloro-2-((1-((1-(2-(2,4-dioxotetrahydropyrimidin-1(2H)-yl)-1,3-dioxoisoindolin-4-yl)piperidin-4-yl)methyl)piperidin-4-yl)amino)pyridin-4-yl)thiazol-2-yl)amino)methyl)tetrahydro-2H-pyran-4-carbonitrile]									20 to 30	5 to 10
			CNC(=O)c1ccc(N2C(=S)N(c3ccc(C#N)c(C(F)(F)F)c3)C(=O)C2(C)C)cc1F [Enzalutamide, reference compound]	0 to 5	0 to 5	10 to 15	10 to 15	5 to 10	5 to 10				
1000 to 5000	a (0% < a ≤ 10%)	a1 (10% < a1 ≤ 20%)	COc1cc(N2CCC(N3CCN(C)CC3)CC2)ccc1Nc1ncc(Cl)c(Nc2ccccc2P(C)(C)=O)n1 [brigatinib, Brigatinib, reference compound]										
			N#Cc1ccc(O[C@H]2CC[C@H](NC(=O)c3ccc(N4CCC(CN5C[C@H]6C[C@@H]5CN6c5ccc6c(c5)C(=O)N(N5CCC(=O)NC5=O)C6=O)CC4)nn3)CC2)cc1Cl [GT-05227, N-((1r,4r)-4-(3-chloro-4-cyanophenoxy)cyclohexyl)-6-(4-(((1R,4R)-5-(2-(2,4-dioxotetrahydropyrimidin-1(2H)-yl)-1,3-dioxoisoindolin-5-yl)-2,5-diazabicyclo[2.2.1]heptan-2-yl)methyl)piperidin-1-yl)pyridazine-3-carboxamide]	20 to 30	20 to 30	15 to 20	25 to 30	5 to 10	20 to 30				
